From patent US20160139118A1, “NOVEL ASSAY” (GLAXOSMITHKLINE INTELLECTUAL PROPERTY (NO.2) LIMITED, priority 2013, published 2016)

B1: Compound A: anti-BAM antibody comprising a heavy chain of SEQ ID NO: 10 and a light chain of SEQ ID NO: 11 (antibody)
heavy: EVQLVESGGGLVQPGGSLRLSCAVSGFTFSDNGMAWVRQAPGKGLEWVSFISNLAYSIDYADTVTGRFTISRDNAKNSLYLQMNSLRAEDTAVYYCVSGTWFAYWGQGTLVTVSSASTKGPSVFPLAPSSKSTSGGTAALGCLVKDYFPEPVTVSWNSGALTSGVHTFPAVLQSSGLYSLSSVVTVPSSSLGTQTYICNVNHKPSNTKVDKKVEPKSCDKTHTCPPCPAPELAGAPSVFLFPPKPKDTLMISRTPEVTCVWDVSHEDPEVKFNWYVDGVEVHNAKTKPREEQYNSTYRWSVLTVLHQDWLNGKEYKCKVSNKALPAPIEKTISKAKGQPREPQVYTLPPSRDELTKNQVSLTCLVKGFYPSDIAVEWESNGQPENNYKTTPPVLDSDGSFFLYSKLTVDKSRWQQGNVFSCSVMHEALHNHYTQKSLSLSPGK
light: DIVMTQSPLSLPVTPGEPASISCRVSQSLLHSNGYTYLHWYLQKPGQSPQLLIYKVSNRFSGVPDRFSGSGSGTDFTLKISRVEAEDVGVYYCSQTRHVPYTFGGGTKVEIKRTVAAPSVFIFPPSDEQLKSGTASVVCLLNNFYPREAKVQWKVDNALQSGNSQESVTEQDSKDSTYSLSSTLTLSKADYEKHKVYACEVTHQGLSSPVTKSFNRGEC
modifications: Mature H2 heavy chain amino acid sequence.; Mature Light chain amino acid sequence.

Legend:
CFI [1] = molecular target: T1, CFI (Homo sapiens, UniProt P05156); assay: Effect of treating agents on CFI bioactivity in cofactor assay; type: biochemical; settings: 1 μg/mL CFI, 10 μM BAM, 37° C. 40 min with agent; then 80 μg/mL CFH and C3b
T1 construct: purified serum CFI protein which has been successfully used in cofactor assays; purchased Complement Technology Inc (Tyler, Tex.); host or cells: human serum
T1 sequence (P05156 19-335 limits assumed): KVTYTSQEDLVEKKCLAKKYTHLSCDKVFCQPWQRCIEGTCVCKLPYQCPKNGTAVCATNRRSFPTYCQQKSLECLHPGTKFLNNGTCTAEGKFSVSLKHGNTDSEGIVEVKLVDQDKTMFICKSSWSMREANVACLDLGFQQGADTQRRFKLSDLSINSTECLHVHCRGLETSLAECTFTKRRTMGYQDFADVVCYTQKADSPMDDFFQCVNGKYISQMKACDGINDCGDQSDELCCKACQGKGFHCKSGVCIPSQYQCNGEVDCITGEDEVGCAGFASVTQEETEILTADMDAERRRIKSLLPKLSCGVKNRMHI
T1 sequence (P05156 340-583 limits assumed): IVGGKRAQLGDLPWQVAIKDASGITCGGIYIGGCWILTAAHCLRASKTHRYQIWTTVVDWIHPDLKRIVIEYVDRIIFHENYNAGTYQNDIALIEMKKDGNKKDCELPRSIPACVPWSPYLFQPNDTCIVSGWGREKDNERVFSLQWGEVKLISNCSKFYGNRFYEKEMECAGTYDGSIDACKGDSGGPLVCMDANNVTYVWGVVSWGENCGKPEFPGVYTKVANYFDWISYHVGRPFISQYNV
Procedure: (§1) FIG. 11 Effect of Tween 20, Triton X-100 and Guanidine on BAM Activity. The effect of Tween 20, Triton X-100, and Guanidine on the activity of BAM was tested in the cofactor assay, where 1 μg/mL of CFI and 10 μM BAM was incubated at 37° C. for 40 min in the presence of the treating agents, then 80 μg/mL CFH and 80 μg/mL C3b was added and the reactions were lasted for 1 hr 20 min at 37° C. The iC3b concentration in the reaction was then measured using the ELISA method.
(§2) As shown in Section 3.10, mouse isotype control IgGs, especially mIgG2b, caused significant background in terms of increasing CFI bioactivity by potential interaction with BAM at the level of the hinge. To reduce such an effect, multiple agents such as Tween 20, Triton X-100, Guanidine and human serum albumin were tested in the cofactor assays to see if they will interfere with CFI bioactivity or BAM activity first. […] However, the effect didn't seem to be differential (FIG. 11). Taken together, none of the agents tested so far could resolve the IgG BAM binding issue. Lastly, another strategy was tested by reversing the order of addition of the reagents. Normally, BAM and anti-BAM antibody were incubated first, then CFI was added to the mixture, CFH and C3b was added last. […]

BAM = molecular target: T2, BAM (Homo sapiens, UniProt P05067); assay: Effect of treating agents on BAM inhibitory activity in cofactor assay; type: biochemical; settings: 1 μg/mL CFI, 10 μM BAM, 37° C. 40 min with agent; then 80 μg/mL CFH and C3b
T2 construct: Beta amyloid recombinant peptide (1-42) (Ultra Pure, TFA Form) was purchased from Covance; purchased Covance
Procedure: as §1, §2

CFI [2] = assay: CFI bioactivity in plasma samples from Alzheimer's disease patients treated with Compound A; type: in vivo, human; settings: 6 mg/kg intravenously
Procedure: FIG. 15. CFI bioactivity in samples from Alzheimer's disease patients treated with anti-BAM (Compound A).
3.14. Providing Evidence that an Anti-BAM Antibody can Modulate CFI Bioactivity in Alzheimer's Patients. Finally, a set of human samples from Alzheimer disease patients treated with Compound A were evaluated for CFI bioactivity in a single assay. The assay conditions follow: • 80 μg/ml CFH and C3b. • 0.01-25 nL of plasma (half-log dilutions). • Incubation 2 hours. • Measurement of iC3b via ELISA. • Samples from one patient were run in a single assay. • Each assay was run in singlets. • To control inter-assay variability a common plasma sample was run in each assay.

T2 sequence (P05067 672-713 limits assumed): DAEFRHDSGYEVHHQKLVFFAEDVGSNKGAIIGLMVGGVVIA

Molecule	effect on CFI bioactivity (in words) (CFI [1])	effect on inhibitory activity of BAM (in words) (BAM)	overall increase of CFI bioactivity (CFI [2]; after the second administration) [%]	overall increase of CFI bioactivity (CFI [2]; after the third administration) [%]
N=C(N)N [Guanidine]	significantly reduced	significantly reduced	–	–
Triton X-100	didn't affect CFI bioactivity	abolished the inhibitory activity of BAM completely	–	–
B1	–	–	10	28
